“Also recorded” adds a separate entry of the source. Structures can show the parent of a compound that is named as a salt. One block for each molecule: values may come before it.
What was measured:
[1] = Hygroscopicity of acid addition salts; type: physicochemical; conditions: acid addition salts as isolated
Description: The hydrochloride salts of Compounds 6, 8a, 11, 13, 14, 16, 18 and 21 were identified as hygroscopic. […] The basis for this assumption was that the addition salt of an aromatic acid would be less hygroscopic than that of the corresponding hydrochloric acid addition salt. Thus, the butyl ester, Compound 20 was Boc-deprotected with 3 equivalents of benzenesulfonic acid in […].

MPTP acute model mice [2] = assay: Experiment 3: tyrosine hydroxylase immunohistochemistry of striatum and substantia nigra, MPTP acute model; type: in vivo, C57/BL/6J mice; conditions: overall conclusion
Method: FIG. 13 presents a bar graph showing the effect of BL-1023* administration on the neuronal density in the stratium, as assessed from Tyrosine Hydroxylase staining. Mice were administered the following treatments: saline (control), MPTP+saline (MPTP), MPTP+L-DOPA 30 mg/kg (MPTP+L-DOPA), MPTP+L-DOPA 30 mg/kg+GABA 18.4 mg/kg (MPTP+L-DOPA+GABA), MPTP+BL1023* 48.4 mg/kg (denoted MPTP+1023 30) and MPTP+BL-1023* 24.2 mg/kg (denoted MPTP+BL1023 15). The MPTP neurotoxin was administered on day 0, with 4 IP injections (each injection contained 20 mg/kg, 5 ml/kg) in saline. The various treatments or saline were administered on day 7, 9, 11 and 13 (total of 4 treatments). Three mice, from each treatment group, and four mice from the control group, were sacrificed on day 15 and subjected to immunohystochemistry for tyrosine hydroxylase of the stratium according to the protocol described in the Examples section hereinbelow. The intensity of Tyrosine Hyroxylase (TH) staining, in the striatum of the treated mice is presented as the average of Intensity Optical Density (IOD) and SE obtained for the total stained area.
FIG. 15 presents a bar graph showing the effect of BL-1023* administration on the neuronal density in the substantia nigra, as assessed from Tyrosine Hydroxylase staining. […]

[3] = system: MPTP sub-acute model mice; assay: Experiment 2: observed vitality signs (level of motion, fur appearance), MPTP sub-acute model; type: in vivo, C57/BL/6J mice; for Fur, observer 1: key: Split fur +; Shiny fur +++; for Fur, observer 2: key: Split fur +; Shiny fur +++; for Fur, observer 3: key: Split fur +; Shiny fur +++; for Fur, observer 4: key: Split fur +; Shiny fur +++; for Vitality, observer 1: key: slow motions +; normal motion +++; for Vitality, observer 2: key: slow motions +; normal motion +++; for Vitality, observer 3: key: slow motions +; normal motion +++; for Vitality, observer 4: key: slow motions +; normal motion +++
Description: FIG. […] 6 hereinabove. Six independent observers estimated the level of mice vitality by the level of motion of the mice (light purple, marked vitality) and fur appearance (dark purple). The results are an average of the observers' reports.

[4] = system: MPTP sub-acute model mice; assay: Experiment 2: tyrosine hydroxylase immunostaining of striatum and substantia nigra, MPTP sub-acute model; type: in vivo, C57/BL/6J mice; conditions: GABA 18.4 mg/kg, L-DOPA 30 mg/kg + GABA 18.4 mg/kg, AN-490 81 mg/kg per os, days 29-30
Method: Shown are microphotograph of the striatum and substantia-nigra of mice receiving saline (FIG. 8A, Naive), MPTP+saline (FIG. 8B, MPTP) MPTP+GABA.HCl 18.4 mg/kg (FIG. 8C, MPTP+GABA), MPTP+L-DOPA 30 mg/kg (FIG. 8D, MPTP+DOPA), MPTP+L-DOPA 30 mg/kg+GABA 18.4 mg/kg (FIG. 8E, MPTP+Dopa+GABA) and MPTP+AN-490 81 mg/kg (FIG. 8F, MPTP+AN490). Paraffin-embedded horizontal sections of the stratium and substantia nigra were stained with hematoxylan and Tyrosine Hyroxylase antibodies. The magnification is ×100 and in the insert ×200.
Animals under deep anesthesia were perfused through the aorta with phosphate-buffered saline (PBS), followed by a cold fixative consisting of 4% paraformaldehyde, 0.35% glutaraldehyde and 0.2% picric acid in phosphate buffer. After perfusion, the brain were removed and fixed in 4% paraformaldehyde for 24 hours, washed with PBS, dehydrated in increasing alcohol concentrations and embedded in paraffin. Paraffin-embedded tissues were processed as described [Rephaeli et al. Int J Cancer. 2005 Aug. 20; 116:226-35]. The avidin-biotin nonspecific binding was prevented by a blocking kit according to the manufacturer's protocol (Vector, USA). The sections were further incubated at 4° C. overnight with the primary antibody mouse monoclonal tyrosine hydroxylase (Visionbiosystem, Newcastle, UK, diluted 1:50). The secondary antibody was biotin conjugated goat anti-mouse IgG (Santa Cruz). Slides were then stained with ABC peroxidase system, developed with diaminobenzidine (DAB), chromogene substrate (Vector Laboratories, Inc. The slides were examined using an Olympus BX52 light microscope and images were taken with Olympus DP50 digital camera system. Images were analyzed by the ImagePro Plus 5.1 software. At least 12 different fields in each experimental group were analyzed. The Mean density±SEM was calculated for the striatum and the mean cell number±SEM was calculated for the SN.

[5] = compared with other esters such as the ethyl or octyl esters; cited from earlier work
MPTP acute model mice [6] = assay: Experiment 1: open field test, MPTP acute model (AN-490); type: in vivo, C57/BL/6J mice; conditions: for motility / motor activity in open field: MPTP treated mice, L-DOPA 25 mg/kg or AN-490 67.5 mg/kg by oral gavage, days 3, 6, 8, 16
Method: The MPTP neurotoxin was administered on day 0, with 4 IP injections (each injection contained 20 mg/kg, 5 ml/kg) in saline. The various treatments or saline were administered on days 0, 1, 2, 3, 6, 7, 13 and 16. Each group of mice (n=6) was subjected, on days 3, 6, 8 and 16, to the open field test, and the following parameters were scored: the distance moved (FIGS. 2A and 2B), velocity (FIGS. 2C and 2D), time spent immobile (FIGS. 2E and 2F) and time spent in a high level of mobility (FIGS. 2G and 2H; strong mobility) during a period of 20 minutes. FIGS. 2A, 2C, 2E and 2G present the data obtained for the control mice, mice treated with L-DOPA and mice treated with AN-490. FIGS. 2B, 2D, 2F and 2H present the data obtained for control mice or mice treated with MPTP, MPTP with L-DOPA and MPTP with AN-490.
Acute model: On day 1, C57/BL mice received 4× […] injections of 20 mg/kg MPTP-HCl (Sigma), dissolved in saline solution, at 2 hours intervals.
The open field test measures behavioral responses, locomotor activity, hyperactivity, and exploratory behaviors. Open field test is also used as a measure of anxiety. Mice tend to avoid brightly illuminated, novel, open spaces, so the open field environment acts as an anxiogenic stimulus and allows for measurement of anxiety-induced locomotor activity and exploratory behaviors. The apparatus for the open field test is a square (0.5×0.5 meter) made of white melamine. All activities were recorded by a video camera mounted above the open field and scored in real-time by a motion-recognition software package (Noldus, Holland) that detects and analyzes the movements of the animals. The video image of the open field arena was partitioned into equal-size squares zone. Total distance, average speed, rearing/elongation behavior, and time spent in various parts of the field (e.g. the border areas vs. mid-area) were measured. Testing was carried out in a temperature, noise and light controlled room.

[7] = MPTP sub-acute model, per os treatment
[8] = listed as Compound 21, tri-hydrochloride
[9] = MPTP+AN-490 67.5 mg/kg, compared to the other tested groups

hygroscopicity [1]: hygroscopic
Molecule: COC(=O)C(Cc1ccc(O)c(O)c1)NC(=O)CCCN.Cl (stereo not shown) [Compound 8a, methyl-2-(4-aminobutanamide)-3-(3,4-dihydroxyphenyl)propanoate hydrochloride]

Molecule: Butyl-2-amino-3-(3,4-phenyl-di[4-aminobutanoate])propanoate tri-benzenesulfonate salt [Compound 22]
hygroscopicity [1]: much less hygroscopic

Fur, observer 1 [3, 7]: +++
Fur, observer 3 [3, 7]: +++
Fur, observer 4 [3, 7]: +++
Vitality, observer 1 [3, 7]: +++
Vitality, observer 2 [3, 7]: +++
Vitality, observer 3 [3, 7]: +++
Vitality, observer 4 [3, 7]: +++
Molecule: NCCCC(=O)O [GABA, 4-amino-butyric acid]
protection of TH positive cells (MPTP acute model mice [2]): protect the TH positive cells
TH staining in the substantia nigra and striatum (IHC) [4]: protection or restoration of the normal morphology

Molecule: CCCCOC(=O)[C@@H](N)Cc1ccc(O)c(O)c1 [L-DOPA butyl ester]
skin permeability [5]: better skin permeability

hygroscopicity [1]: hygroscopic
Fur, observer 1 [3, 7]: +
Fur, observer 2 [3, 7]: +
Vitality, observer 1 [3, 7]: +++
Vitality, observer 2 [3, 7]: +++
Vitality, observer 3 [3, 7]: +++
Vitality, observer 4 [3, 7]: +++
vitality signs (fur appearance) ([3]; MPTP+AN-490 81 mg/kg per os): reduced vitality signs
Molecule: CCCCOC(=O)[C@@H](N)Cc1ccc(OC(=O)CCCN)c(OC(=O)CCCN)c1 [AN-490, Butyl-2-amino-3-(3,4-phenyl-di[4-aminobutanoate])propanoate tri-hydrochloride]
motility / motor activity in open field (MPTP acute model mice [6]; [8]): significant increase in motility
motility / motor activity in open field (MPTP acute model mice [6]; tri-hydrochloride): continuous increase in motor activity
strong mobility in open field (MPTP acute model mice [6]; [9]): highly mobile
time spent immobile in open field (MPTP acute model mice [6]; [9]): immobile for a short time
velocity in open field (MPTP acute model mice [6]; [9]): highest velocity
TH staining in the substantia nigra and striatum (IHC) [4, 8]: enhanced neuronal density
TH staining in the substantia nigra and striatum (IHC) ([4]; tri-hydrochloride): protection or restoration of the normal morphology; also recorded: TH protective activity

melting point: 87 °C
hygroscopicity [1]: hygroscopic
Molecule: COC(=O)C(Cc1ccc(OC(=O)CCCN)c(OC(=O)CCCN)c1)NC(=O)CCCN.Cl (stereo not shown) [Compound 13]

hygroscopicity [1]: hygroscopic
Molecule: CCCCOC(=O)C(N)Cc1ccc(O)c(O)c1.Cl (stereo not shown) [Compound 14, Butyl-2-amino-3-(3,4-dihydroxyphenyl)propanoate hydrochloride]

melting point: 74 to 75 °C
Molecule: CCCCOC(=O)C(Cc1ccc(OC(=O)CCCN)c(OC(=O)CCCN)c1)NC(=O)CCCN (stereo not shown) (as salt: hydrochloride) [Compound 18]

melting point: 77 °C
Molecule: CCCCOC(=O)C(Cc1ccc(O)c(O)c1)NC(=O)CCCN (stereo not shown) (as salt: hydrochloride) [BL-1023*, Butyl-2-(4-Aminobutanamide)-3-(3,4-dihydroxyphenyl)propanoate hydrochloride]

melting point: 185 °C
hygroscopicity [1]: hygroscopic
Molecule: COC(=O)C(N)Cc1ccc(OC(=O)CCCN)c(OC(=O)CCCN)c1.Cl (stereo not shown) [Compound 11, methyl-2-amino-3-(3,4-phenyl-di-[4-aminobutanoate])propanoate-trihydrochloride]

hygroscopicity [1]: hygroscopic
Molecule: CCCCOC(=O)C(Cc1ccc(OC(=O)CCCN)c(OC(=O)CCCN)c1)NC(=O)CCCN (stereo not shown) [Compound 18]

melting point: 175 to 176 °C
Molecule: CCCCOC(=O)[C@@H](N)Cc1ccc(OC(=O)CCCN)c(OC(=O)CCCN)c1 (as salt: hydrochloride) [AN-490, Butyl-2-amino-3-(3,4-phenyl-di[4-aminobutanoate])propanoate tri-hydrochloride]

Molecule: COC(=O)[C@@H](N)Cc1ccc(O)c(O)c1.Cl [Compound 6, L-DOPA methyl ester hydrochloride]
hygroscopicity [1]: hygroscopic
